The target in one assay is human Factor XIa (Homo sapiens (Human), UniProt P03951). Description: Factor XIa Assay. Conditions: purified human Factor XIa 40 pM, Z-Gly-Pro-Arg-AFC 100 μM, pH 7.4; read-out: FXIa Ki. In kind it is biochemical. A digest of the protocol: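 Ki derived from the dependence of Vo/Vi on inhibitor concentration under a competitive-inhibition model, after pre-equilibration of enzyme and inhibitor. Reaction: 40 pM human FXIa, 100 μM Z-Gly-Pro-Arg-AFC, HEPES 50 mM pH 7.4 with NaCl, CaCl2 and PEG 8000; run at room temperature or 37° C.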
Chain of human Factor XIa (P03951 388-625): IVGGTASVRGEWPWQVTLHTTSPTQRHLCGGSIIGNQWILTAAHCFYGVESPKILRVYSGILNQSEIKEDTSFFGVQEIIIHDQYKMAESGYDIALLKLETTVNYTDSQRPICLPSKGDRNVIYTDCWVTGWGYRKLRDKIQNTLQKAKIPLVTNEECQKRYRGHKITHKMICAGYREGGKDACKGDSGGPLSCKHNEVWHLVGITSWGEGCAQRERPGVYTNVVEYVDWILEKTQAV
Chain of human Factor XIa (P03951 19-387 partner): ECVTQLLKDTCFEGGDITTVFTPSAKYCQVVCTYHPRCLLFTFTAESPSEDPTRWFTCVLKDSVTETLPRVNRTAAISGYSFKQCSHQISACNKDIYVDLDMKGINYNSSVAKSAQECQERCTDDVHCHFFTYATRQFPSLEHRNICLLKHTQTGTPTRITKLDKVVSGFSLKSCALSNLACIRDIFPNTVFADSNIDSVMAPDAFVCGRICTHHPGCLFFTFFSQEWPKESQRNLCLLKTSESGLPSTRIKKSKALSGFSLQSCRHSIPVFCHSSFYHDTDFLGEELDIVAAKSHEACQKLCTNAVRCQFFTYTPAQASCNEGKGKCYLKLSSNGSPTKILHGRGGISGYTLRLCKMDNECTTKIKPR
For orientation: Ki means the dissociation constant of the complex between target and ligand, obtained from inhibition or displacement. Consider `COC(=O)Nc1ccc(C(=O)N[C@@H](CCN2CCC2)C(=O)N2CC[C@@]3(C2)OC(=O)Nc2ccc(Cl)cc23)cc1` [Example 112, methyl (4-(((S)-4-(azetidin-1-yl)-1-((R)-6-chloro-2-oxo-1,2-dihydrospiro[benzo[d][1,3]oxazine-4,3′-pyrrolidin]-1′-yl)-1-oxobutan-2-yl)carbamoyl)phenyl)carbamate], for which the Ki was determined as 219 nM.

Turning to `O=C1Nc2ccc(Cl)c(F)c2[C@@]2(CCCN(C(=O)[C@H](Cc3cncnc3)NC(=O)c3ccc4[nH]c(=O)ccc4c3)C2)O1` [Example 113, N-((S)-1-((R)-6-chloro-5-fluoro-2-oxo-1,2-dihydrospiro[benzo[d][1,3]oxazine-4,3′-piperidin]-1′-yl)-1-oxo-3-(pyrimidin-5-yl)propan-2-yl)-2-oxo-1,2-dihydroquinoline-6-carboxamide], the Ki is 15.6 nM.

Turning to `O=C1Nc2ccc(Cl)c(F)c2[C@@]2(CCCN(C(=O)[C@H](Cc3cnccn3)NC(=O)c3ccc4[nH]c(=O)ccc4c3)C2)O1` [Example 114, N-((S)-1-((R)-6-chloro-5-fluoro-2-oxo-1,2-dihydrospiro[benzo[d][1,3]oxazine-4,3′-piperidin]-1′-yl)-1-oxo-3-(pyrazin-2-yl)propan-2-yl)-2-oxo-1,2-dihydroquinoline-6-carboxamide], the inhibition constant Ki was 74.4 nM.

`O=C1Nc2ccc(Cl)cc2[C@]2(CCN(C(=O)[C@@H](Cc3ccccc3)C(=O)Nc3ccc(C(=O)O)cc3)C2)O1` [Example 121a, 4-((S)-2-benzyl-3-((S)-6-chloro-2-oxo-1,2-dihydrospiro[benzo[d][1,3]oxazine-4,3′-pyrrolidin]-1′-yl)-3-oxopropanamido)benzoic acid]: the Ki was no less than 5000 nM.

With `O=C1Nc2ccc(Cl)cc2[C@]2(CCN(C(=O)[C@H](Cc3ccccc3)C(=O)Nc3ccc(C(=O)O)cc3)C2)O1` [Example 121b, 4-((R)-2-benzyl-3-((S)-6-chloro-2-oxo-1,2-dihydrospiro[benzo[d][1,3]oxazine-4,3′-pyrrolidin]-1′-yl)-3-oxopropanamido)benzoic acid], the inhibition constant (Ki) was no less than 5000 nM.

Turning to `O=C1Nc2ccc(Cl)cc2[C@@]2(CCN(C(=O)[C@H](Cc3ccccc3)C(=O)Nc3ccc(C(=O)O)cc3)C2)O1` [Example 121c, 4-((R)-2-benzyl-3-((R)-6-chloro-2-oxo-1,2-dihydrospiro[benzo[d][1,3]oxazine-4,3′-pyrrolidin]-1′-yl)-3-oxopropanamido)benzoic acid], the inhibition constant (Ki) was found to be 439 nM.

As for `O=C1Nc2ccc(Cl)cc2[C@@]2(CCN(C(=O)[C@@H](Cc3ccccc3)C(=O)Nc3ccc(C(=O)O)cc3)C2)O1` [Example 121d, 4-((S)-2-benzyl-3-((R)-6-chloro-2-oxo-1,2-dihydrospiro[benzo[d][1,3]oxazine-4,3′-pyrrolidin]-1′-yl)-3-oxopropanamido)benzoic acid], the Ki worked out at 3780 nM.

Turning to `COC(=O)Nc1ccc(-c2c[nH]c([C@@H](Cc3ccccc3)C(=O)N3CC[C@@]4(C3)OC(=O)Nc3ccc(Cl)cc34)n2)cc1` [Example 122a, methyl (4-(2-((R)-1-((R)-6-chloro-2-oxo-1,2-dihydrospiro[benzo[d][1,3]oxazine-4,3′-pyrrolidin]-1′-yl)-1-oxo-3-phenylpropan-2-yl)-1H-imidazol-4-yl)phenyl)carbamate], the inhibition constant Ki came to 33.6 nM.

Take `COC(=O)Nc1ccc(-c2c[nH]c([C@H](Cc3ccccc3)C(=O)N3CC[C@]4(C3)OC(=O)Nc3ccc(Cl)cc34)n2)cc1` [Example 122b, methyl (4-(2-((S)-1-((S)-6-chloro-2-oxo-1,2-dihydrospiro[benzo[d][1,3]oxazine-4,3′-pyrrolidin]-1′-yl)-1-oxo-3-phenylpropan-2-yl)-1H-imidazol-4-yl)phenyl)carbamate]: the inhibition constant (Ki) amounted to 4690 nM.

In the case of `COC(=O)Nc1ccc(-c2c[nH]c([C@@H](Cc3ccccc3)C(=O)N3CC[C@]4(C3)OC(=O)Nc3ccc(Cl)cc34)n2)cc1` [Example 122c, methyl (4-(2-((R)-1-((S)-6-chloro-2-oxo-1,2-dihydrospiro[benzo[d][1,3]oxazine-4,3′-pyrrolidin]-1′-yl)-1-oxo-3-phenylpropan-2-yl)-1H-imidazol-4-yl)phenyl)carbamate], the Ki was 5000 nM.

With `COC(=O)Nc1ccc(-c2c[nH]c([C@H](Cc3ccccc3)C(=O)N3CC[C@@]4(C3)OC(=O)Nc3ccc(Cl)cc34)n2)cc1` [Example 122d, methyl (4-(2-((S)-1-((R)-6-chloro-2-oxo-1,2-dihydrospiro[benzo[d][1,3]oxazine-4,3′-pyrrolidin]-1′-yl)-1-oxo-3-phenylpropan-2-yl)-1H-imidazol-4-yl)phenyl)carbamate], the Ki worked out at 364 nM.

Turning to `O=C1Nc2ccc(Cl)c(F)c2[C@@]2(CCCN(C(=O)C(Cc3ccccc3)c3nc(-c4csc(C(=O)O)c4F)c[nH]3)C2)O1` (stereo partly drawn) [Example 124, 4-(2-(1-((R)-6-chloro-5-fluoro-2-oxo-1,2-dihydrospiro[benzo[d][1,3]oxazine-4,3′-piperidin]-1′-yl)-1-oxo-3-phenylpropan-2-yl)-1H-imidazol-4-yl)-3-fluorothiophene-2-carboxylic acid], the inhibition constant (Ki) is 209 nM.

Take `O=C1Nc2ccc(Cl)cc2[C@@]2(CCCN(C(=O)C(Cc3ccc(F)cc3)c3nc(Cl)c(-c4ccc(F)cc4)[nH]3)C2)O1` (stereo partly drawn) [Example 127, (4R)-6-chloro-1′-(2-(4-chloro-5-(4-fluorophenyl)-1H-imidazol-2-yl)-3-(4-fluorophenyl)propanoyl)spiro[benzo[d][1,3]oxazine-4,3′-piperidin]-2(1H)-one]: the inhibition constant (Ki) was 5000 nM.

For the compound `O=C1Nc2ccc(Cl)cc2[C@@]2(CCCN(C(=O)C(Cc3ccc(F)cc3)c3nc(Cl)c(-c4ccc(C(=O)O)cc4)[nH]3)C2)O1` (stereo partly drawn) [Example 128, 4-(4-chloro-2-(1-((R)-6-chloro-2-oxo-1,2-dihydrospiro[benzo[d][1,3]oxazine-4,3′-piperidin]-1′-yl)-3-(4-fluorophenyl)-1-oxopropan-2-yl)-1H-imidazol-5-yl)benzoic acid], the inhibition constant Ki was found to be 8750 nM.

`COC(=O)Nc1ccc(-c2nnc([C@H](Cc3ccccc3)C(=O)N3CC[C@@]4(C3)OC(=O)Nc3ccc(Cl)c(F)c34)o2)cc1` [Example 129A, methyl (4-(5-((S)-1-((R)-6-chloro-5-fluoro-2-oxo-1,2-dihydrospiro[benzo[d][1,3]oxazine-4,3′-pyrrolidin]-1′-yl)-1-oxo-3-phenylpropan-2-yl)-1,3,4-oxadiazol-2-yl)phenyl)carbamate]: the inhibition constant Ki is greater than 875 nM.

For `COC(=O)Nc1ccc(-c2ncc(C(Cc3ccccc3)C(=O)N3CC[C@@]4(C3)OC(=O)Nc3ccc(Cl)c(F)c34)[nH]2)cc1` (stereo partly drawn) [Example 130, methyl (4-(5-(1-((R)-6-chloro-5-fluoro-2-oxo-1,2-dihydrospiro[benzo[d][1,3]oxazine-4,3′-pyrrolidin]-1′-yl)-1-oxo-3-phenylpropan-2-yl)-1H-imidazol-2-yl)phenyl)carbamate], the Ki was found to be 91.9 nM.

On to `COC(=O)Nc1ccc2[nH]c([C@@H](Cc3ccccc3)C(=O)N3CC[C@@]4(C3)OC(=O)Nc3ccc(Cl)cc34)nc2c1` [Example 131c, methyl (2-((R)-1-((R)-6-chloro-2-oxo-1,2-dihydrospiro[benzo[d][1,3]oxazine-4,3′-pyrrolidin]-1′-yl)-1-oxo-3-phenylpropan-2-yl)-1H-benzo[d]imidazol-5-yl)carbamate], for which the Ki worked out at 354 nM.

In the case of `COC(=O)Nc1ccc2[nH]c([C@@H](Cc3ccccc3)C(=O)N3CC[C@]4(C3)OC(=O)Nc3ccc(Cl)cc34)nc2c1` [Example 131d, methyl (2-((R)-1-((S)-6-chloro-2-oxo-1,2-dihydrospiro[benzo[d][1,3]oxazine-4,3′-pyrrolidin]-1′-yl)-1-oxo-3-phenylpropan-2-yl)-1H-benzo[d]imidazol-5-yl)carbamate], the Ki was found to be 5000 nM.

For `O=C1Nc2ccc(Cl)cc2[C@@]2(CCCN(C(=O)C(Cc3ccc(F)cc3)c3nc4ccc(F)cc4[nH]3)C2)O1` (stereo partly drawn) [Example 133, (4R)-6-chloro-1′-(2-(6-fluoro-1H-benzo[d]imidazol-2-yl)-3-(4-fluorophenyl)propanoyl)spiro[benzo[d][1,3]oxazine-4,3′-piperidin]-2(1H)-one], the Ki was 8750 nM.

Take `COC(=O)Nc1ccc2[nH]c(C(Cc3ccccc3)C(=O)N3CCC[C@@]4(C3)OC(=O)Nc3ccc(Cl)c(F)c34)cc2c1` (stereo partly drawn) [Example 134, methyl (2-(1-((R)-6-chloro-5-fluoro-2-oxo-1,2-dihydrospiro[benzo[d][1,3]oxazine-4,3′-piperidin]-1′-yl)-1-oxo-3-phenylpropan-2-yl)-1H-indol-5-yl)carbamate]: the Ki is greater than 875 nM.

`O=C1Nc2ccc(Cl)cc2[C@@]2(CCCN(C(=O)C(CC3CC3)Nc3n[nH]c4cc(F)ccc34)C2)O1` (stereo partly drawn) [Example 135, (4R)-6-chloro-1′-(3-cyclopropyl-2-((6-fluoro-1H-indazol-3-yl)amino)propanoyl)spiro[benzo[d][1,3]oxazine-4,3′-piperidin]-2(1H)-one]: the Ki is greater than 8750 nM.

As for `COC(=O)Nc1ccc2onc(N[C@@H](Cc3ccccc3)C(=O)N3CCC[C@@]4(C3)OC(=O)Nc3ccc(Cl)cc34)c2c1` [Example 138, methyl (3-(((S)-1-((R)-6-chloro-2-oxo-1,2-dihydrospiro[benzo[d][1,3]oxazine-4,3′-piperidin]-1′-yl)-1-oxo-3-phenylpropan-2-yl)amino)benzo[d]isoxazol-5-yl)carbamate], the Ki came to 8750 nM.

The same assay, now with this note: read-out: FXIa Ki.
In the case of `NS(=O)(=O)c1ccc(C(=O)N[C@@H](Cc2ccccc2)C(=O)N2CCC3(C2)OC(=O)Nc2ccc(Cl)cc23)cc1` (stereo partly drawn) [Example 139, N-((2S)-1-(6-chloro-2-oxo-1,2-dihydrospiro[benzo[d][1,3]oxazine-4,3′-pyrrolidin]-1′-yl)-1-oxo-3-phenylpropan-2-yl)-4-sulfamoylbenzamide], the Ki worked out at 928 nM.

In the case of `O=C1Nc2ccc(Cl)cc2C2(CCN(C(=O)[C@H](Cc3ccccc3)NC(=O)c3ccc4[nH]ncc4c3)C2)O1` (stereo partly shown) [Example 142], the inhibition constant (Ki) amounted to 48.4 nM.

Consider `Cc1nccnc1C(=O)N[C@@H](Cc1ccccc1)C(=O)N1CCC2(C1)OC(=O)Nc1ccc(Cl)cc12` (stereo partly shown) [Example 145], for which the Ki was determined as 3320 nM.

(Values after patent US10093683B2, “Factor XIa inhibitors” (Merck Sharp & Dohme Corp., priority 2014, dated 2018).)
